Laboratory results from US20040049009A1, “Methods for improving the antagonistic/agonistic properties of peptidic antagonists/agonists of the corticotropin-releasing factor receptor (crfr)” (priority 2000, published 2004).

Key:
mCRFR2β = biological target: T1, mCRFR2β (Mus musculus, UniProt Q60748); assay: Intracellular cAMP accumulation in mCRFR2β-HEK 293 cells; type: cell-based; conditions: for Rel. intrinsic activity mCRFR2β: cAMP after 1 μM antagonist relative to Svg stimulation, 95% CI in parentheses; for Rel. potency of antagonist mCRFR2β: inhibition of cAMP accumulation after 1 nM Svg
T1 construct: expressed in transfected cells
T1 sequence (Q60748 1-431 isoform Q60748-2): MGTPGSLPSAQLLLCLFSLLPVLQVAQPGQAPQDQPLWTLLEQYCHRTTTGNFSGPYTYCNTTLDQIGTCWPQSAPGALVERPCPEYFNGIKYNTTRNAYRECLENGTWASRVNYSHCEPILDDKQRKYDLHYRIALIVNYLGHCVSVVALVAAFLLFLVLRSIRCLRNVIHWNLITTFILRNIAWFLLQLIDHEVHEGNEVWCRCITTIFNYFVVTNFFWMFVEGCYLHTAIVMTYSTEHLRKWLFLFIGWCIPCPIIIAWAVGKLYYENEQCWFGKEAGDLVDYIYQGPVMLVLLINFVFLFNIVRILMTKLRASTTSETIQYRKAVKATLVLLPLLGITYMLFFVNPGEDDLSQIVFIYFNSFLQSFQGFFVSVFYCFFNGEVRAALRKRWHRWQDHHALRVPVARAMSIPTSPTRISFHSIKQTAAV
Description: (§1) The SPA assay for rCRFR1 and rCRFR2β was performed in 96-well microtiter plates. […] After 1 hour shaking 250 mg wheat germ agglutinin beads per well were added and the plates were counted in a microbeta scintillation counter (Wallac). cAMP accumulation was measured using the SPA based Biotrack assay (Amersham).

rCRFR1 [1] = biological target: T2, rCRFR1 (Rattus norvegicus, UniProt P35353)
T2 sequence (P35353 24-415): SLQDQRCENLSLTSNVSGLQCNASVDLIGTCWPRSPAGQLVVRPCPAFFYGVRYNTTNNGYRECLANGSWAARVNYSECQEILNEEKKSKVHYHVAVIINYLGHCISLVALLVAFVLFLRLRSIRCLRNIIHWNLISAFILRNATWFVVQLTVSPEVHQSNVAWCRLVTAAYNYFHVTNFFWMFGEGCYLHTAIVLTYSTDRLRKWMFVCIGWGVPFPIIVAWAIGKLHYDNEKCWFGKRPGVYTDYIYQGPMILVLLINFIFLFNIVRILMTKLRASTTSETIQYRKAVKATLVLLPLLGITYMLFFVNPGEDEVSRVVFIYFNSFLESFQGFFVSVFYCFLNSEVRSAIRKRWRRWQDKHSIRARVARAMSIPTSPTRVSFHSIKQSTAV

C57BL/6J mice = assay: Elevated plus-maze test, icv injection, oCRF-induced behavior; type: in vivo, mouse
Description: The antagonists and agonists were injected icv 30 and 15 min, respectively, before exposure to the elevated plus-maze for 5 min.
Ten min later the animals received 90 ng oCRF, and after 30 min, their behavior was recorded in the elevated plus maze test.
Alternatively, the elevated plus-maze behavior of C57BL/6J mice cannulated in the lateral ventricles (Radulovic, J., Rühmann, A., Liepold, T & Spiess, J. (1999) J.Neurosci. 19, 5016-5025) was investigated 15 min after injection of ovine CRF (oCRF) in the elevated plus-maze test (Radulovic, J., Kammermeier, J. & Spiess, J. (1998) Behav.Brain Res. 95, 179-189.).Peptide concentrations were determined by amino acid analysis (Radulovic, J., Rühmann, A., Liepold, T. & Spiess, J. (1999) J.Neurosci. 19, 5016-5025). CRF antagonists in aCSF as vehicle or vehicle alone were injected 30 min prior to oCRF administration. The behavior of the mice was recorded by a video camera connected to a PC and analyzed by the software VideoMot 2 (Technical &Scientific Equipment). The time spent, distance crossed, and number of entries in the open arms, closed arms, and center were recorded. The cannular placement was confirmed for each mouse by histological examination of the brains after methylene blue injection (Radulovic, J., Rühmann, A., Liepold, T. & Spiess, J. (1999) J.Neurosci. 19, 5016-5025). The behavioral data were analyzed by t tests or ANOVA followed by post hoc Scheffe's test for multiple comparisons. Data are presented as mean±SEM. The shift of preference from the open to the closed arms is interpreted as an increase of anxiety-like behavior. Locomotor activity is determined with this assay by the distance traveled.

rCRFR1 [2] = biological target: T2, rCRFR1; assay: Competitive binding to rCRFR1, SPA on HEK-293 membrane fractions with [125I-Tyr0]h/rCRF; conditions: binding affinities CRFR1 vs CRFR2
Description: as §1
Binding of CRF-like peptides to rCRFBP was carried out with an SPA assay in nickel-chelate-coated 96-well microtiter plates (Flash Plate PLUS™, NEN), which bound rCRFBP tagged with a C-terminal His6 sequence (rCRFBP-His6). The scintillator beads carrying the Ni 2+ ions for binding of the His tag were located at the inner surface of the wells of this microtiterplate. […] The plates were sealed and incubated for four hours at room temperature. The radioactivities in the microtiterplates were counted in a Wallac 1450 Microbeta scintillation counter by detection of the light emitted from the scintillator beads. In both SPA systems the detection of the radioligand.8 depended on its proximity to the beads containing the scintillator. […] The major portion of counted radioactivity (>70%) represented specific binding that was because of radiolabeled ligand specifically bound to CRFBP or CRFR. […] Binding data were analyzed using the Prism computer program (GraphPad Software, San Diego).

[3] = Isoelectric focusing (IEF); type: physicochemical; conditions: determined by isoelectric focussing
Description: Isoelectric focusing (IEF) was carried out with a BioRad IEF cell system using Biorad IEF strips (11 cm, pH range from 3 to 10). The system was cooled to 20° C. Calibration was performed with 80 μg of Sigma IEF mix 3.6-9.3 dissolved in 200 μl water containing 0.2% Bio-Lyte® 3/10 and 0.1% NP40. Twenty five μg of each peptide was dissolved in 200 μl water containing 0.2% Bio-Lyte® 3/10,0.1% NP40, and 10 mM DTT.IEF gels were placed in the chamber containing the peptide solution. The IEF gels were initially rehydrated for 12 hours at 50 V. Focusing of the peptides was achieved by application of a linear voltage gradient starting at 250 V and reaching 8000 V in 2.5 hours. The gels were then exposed to 8000 V for 4.5 hours. Subsequently, the IEF gels were stained in the BioRad IEF gel staining solution and destained in a mixture of 10% acetic acid, 40% methanol, and 50% water.

## anti-sauvagine-30 [aSvg-30]
mCRFR2β
  Rel. intrinsic activity mCRFR2β: 1.0 (0.9-1.1) %
  Rel. potency of antagonist mCRFR2β: 99 (98-99) %
rCRFR1 [1]
  Emax: 6.5%

## oCRF
C57BL/6J mice; 220 ng [E11]Ast icv, 10 min later 90 ng oCRF, threefold molar excess
  effect on oCRF-elicited anxious behavior in elevated plus maze (Example 9): elicited anxious behavior
C57BL/6J mice; icv 20 pmol (90 ng) oCRF
  anxiety-like behavior (open arm visits, % time in open arms): enhanced
  locomotion (total distance crossed) in elevated plus-maze: markedly decreased
C57BL/6J mice; icv 35 pmol (170 ng) oCRF
  behavior effects at higher agonist dose: significantly enhanced

## h/rCRF
rCRFR1 [2]
  selectivity favoring CRFR1 (over CRFR2), factor: 30

## α-helical CRF^9-41 [α-hel-CRF^9-41]
mCRFR2β
  Rel. intrinsic activity mCRFR2β: 1.4 (1.2-1.5) %
  Rel. potency of antagonist mCRFR2β: 97 (96-97) %
C57BL/6J mice; 120 pmol antagonist icv before 35 pmol oCRF
  change of oCRF-induced behavioral effects in plus-maze test: no significant change
rCRFR1 [1]
  Emax: 19%

## CC[C@H](C)[C@H](NC(=O)[C@@H](NC(=O)[C@H](CC(=O)O)NC(=O)[C@H](CC(C)C)NC(=O)[C@H](CC(C)C)NC(=O)[C@H](CC(C)C)NC(=O)[C@H](CCCNC(=N)N)NC(=O)[C@H](CC(N)=O)NC(=O)[C@H](CC(N)=O)NC(=O)[C@H](C)NC(=O)[C@H](C)NC(=O)[C@H](CCC(N)=O)NC(=O)[C@H](CCC(N)=O)NC(=O)[C@H](CCCCN)NC(=O)[C@H](CCC(=O)O)NC(=O)[C@H](CCCCN)NC(=O)[C@H](CCC(=O)O)NC(=O)[C@H](CCC(N)=O)NC(=O)[C@H](CCCCN)NC(=O)[C@H](CCC(=O)O)NC(=O)[C@@H](NC(=O)[C@H](CCC(=O)O)NC(=O)[C@@H](NC(=O)[C@H](CCSC)NC(=O)[C@H](CCCCN)NC(=O)[C@H](CCCNC(=N)N)NC(=O)[C@H](CC(C)C)NC(=O)[C@H](CC(C)C)NC(=O)[C@H](CCC(=O)O)NC(=O)[C@H](CC(C)C)NC(=O)[C@H](CO)NC(=O)[C@H](CC(C)C)NC(=O)[C@H](CC(=O)O)NC(=O)[C@@H](NC(=O)[C@H](CO)NC(=O)[C@@H](NC(=O)[C@@H]1CCCN1C(=O)[C@@H]1CCCN1C(=O)CNC(=O)[C@@H]1CCC(=O)N1)[C@@H](C)CC)[C@@H](C)CC)[C@@H](C)CC)[C@@H](C)CC)[C@@H](C)O)C(N)=O [Svg, sauvagine]
[3]
  Isoelectric point: 5.1
